For the test, the target named is T1, OTUD3 (Homo sapiens, UniProt Q5T2D3).
T1 sequence (Q5T2D3 1-398): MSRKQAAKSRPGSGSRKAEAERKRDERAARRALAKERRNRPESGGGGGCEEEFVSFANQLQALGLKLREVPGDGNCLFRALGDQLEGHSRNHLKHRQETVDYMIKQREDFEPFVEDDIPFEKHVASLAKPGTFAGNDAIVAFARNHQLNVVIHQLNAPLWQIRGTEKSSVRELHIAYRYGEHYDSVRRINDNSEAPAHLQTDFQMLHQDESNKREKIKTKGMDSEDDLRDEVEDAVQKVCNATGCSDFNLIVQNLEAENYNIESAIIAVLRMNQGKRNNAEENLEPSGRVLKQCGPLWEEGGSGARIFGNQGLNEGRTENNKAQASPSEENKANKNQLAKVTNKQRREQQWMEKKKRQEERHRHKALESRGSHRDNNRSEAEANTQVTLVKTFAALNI
In words: microscale thermophoresis (MST) with labeled OTUD3; supported by in vitro K48 di-ubiquitin cleavage assay with purified OTUD3 OTU (aa […]) at […] Rolapitant. It counts as binding. A general note: Microscale thermophoresis detects binding through changes in fluorescence in a small temperature gradient.

For the compound `C[C@@H](OC[C@@]1(c2ccccc2)CC[C@]2(CCC(=O)N2)CN1)c1cc(C(F)(F)F)cc(C(F)(F)F)c1` [Rolapitant], the “microscale thermophoresis (MST) with labeled OTUD3; supported by in vitro K48 di” value is “MST (microscale thermophoresis) assays shown that OTUD3 could directly bind to Rolapitant in vitro”.
